From ChEMBL document CHEMBL1128045, “Antifungal lipopeptides: Structure-activity relationships of 3-hydroxyglutamine-modified pneumocandin B0 derivatives” (Bioorg Med Chem Lett, 1995)
Values after ≈ are worked out from the molar mass of the structure shown. Numbered stars: 1 amine (or outer) side, 2 acyl side, 3 side chain; on linkers, the order of the positions; unused ones are H or OH. Bridge positions count the residues as written; N and C are the ends. Square brackets hold non-standard residues; d marks the D form. Peptide text beside a SMILES is read from it. * marks the point of attachment. Orn(4R-OH,5R-OH) = O=C([C@H](C[C@@H](O)[C@@H](O)N[*:3])N[*:1])[*:2]; hTyr(3S-OH,4S-OH) = N[C@H](C(=O)O)[C@H](O)[C@@H](O)c1ccc(O)cc1; X16 = COC(=O)CCCCCNC(=O)C[C@@H](O)[C@H](N[*:1])C(=O)[*:2]; X8 = O=C(O)CCCCCNC(=O)C[C@@H](O)[C@H](N[*:1])C(=O)[*:2]; Orn(4R-OH) = O=C([C@H](C[C@@H](O)CN[*:3])N[*:1])[*:2]; X6 = C[N+](C)(C)CC[C@@H](O)[C@H](N[*:1])C(=O)[*:2]; hTyr(3R-OH) = N[C@H](C(=O)O)[C@H](O)Cc1ccc(O)cc1; X11 = COC(=O)C[C@@H](O)[C@H](N[*:1])C(=O)[*:2]; X14 = NNC(=O)C[C@@H](O)[C@H](N[*:1])C(=O)[*:2]; X5 = NC(N)=NCC[C@@H](O)[C@H](N[*:1])C(=O)[*:2]; X3 = O=C(C[C@@H](O)[C@H](N[*:1])C(=O)[*:2])NO; X13 = CNCC[C@@H](O)[C@H](N[*:1])C(=O)[*:2]; X9 = N#CC[C@@H](O)[C@H](N[*:1])C(=O)[*:2]; Pro(3S-OH) = O=C(O)[C@H]1NCC[C@@H]1O; Hyp = O=C(O)[C@@H]1C[C@@H](O)CN1; X1 = CCC(C)CC(C)CCCCCCCCC(=O)*

Experiments:
Candida parapsilosis = assay: In vitro Fungicidal activity (MFC) against Candida parapsilosis (MY 1010).; format: functional; settings: Lodderomyces parapsilosis
Beta-1,3-glucan synthase = Beta-1,3-glucan synthase (Candida albicans, UniProt O13428); assay: Tested for inhibition of Beta-1,3-glucan synthase using a crude membrane of Candida albicans (MY 1208).
Chain of Beta-1,3-glucan synthase (O13428 whole entry): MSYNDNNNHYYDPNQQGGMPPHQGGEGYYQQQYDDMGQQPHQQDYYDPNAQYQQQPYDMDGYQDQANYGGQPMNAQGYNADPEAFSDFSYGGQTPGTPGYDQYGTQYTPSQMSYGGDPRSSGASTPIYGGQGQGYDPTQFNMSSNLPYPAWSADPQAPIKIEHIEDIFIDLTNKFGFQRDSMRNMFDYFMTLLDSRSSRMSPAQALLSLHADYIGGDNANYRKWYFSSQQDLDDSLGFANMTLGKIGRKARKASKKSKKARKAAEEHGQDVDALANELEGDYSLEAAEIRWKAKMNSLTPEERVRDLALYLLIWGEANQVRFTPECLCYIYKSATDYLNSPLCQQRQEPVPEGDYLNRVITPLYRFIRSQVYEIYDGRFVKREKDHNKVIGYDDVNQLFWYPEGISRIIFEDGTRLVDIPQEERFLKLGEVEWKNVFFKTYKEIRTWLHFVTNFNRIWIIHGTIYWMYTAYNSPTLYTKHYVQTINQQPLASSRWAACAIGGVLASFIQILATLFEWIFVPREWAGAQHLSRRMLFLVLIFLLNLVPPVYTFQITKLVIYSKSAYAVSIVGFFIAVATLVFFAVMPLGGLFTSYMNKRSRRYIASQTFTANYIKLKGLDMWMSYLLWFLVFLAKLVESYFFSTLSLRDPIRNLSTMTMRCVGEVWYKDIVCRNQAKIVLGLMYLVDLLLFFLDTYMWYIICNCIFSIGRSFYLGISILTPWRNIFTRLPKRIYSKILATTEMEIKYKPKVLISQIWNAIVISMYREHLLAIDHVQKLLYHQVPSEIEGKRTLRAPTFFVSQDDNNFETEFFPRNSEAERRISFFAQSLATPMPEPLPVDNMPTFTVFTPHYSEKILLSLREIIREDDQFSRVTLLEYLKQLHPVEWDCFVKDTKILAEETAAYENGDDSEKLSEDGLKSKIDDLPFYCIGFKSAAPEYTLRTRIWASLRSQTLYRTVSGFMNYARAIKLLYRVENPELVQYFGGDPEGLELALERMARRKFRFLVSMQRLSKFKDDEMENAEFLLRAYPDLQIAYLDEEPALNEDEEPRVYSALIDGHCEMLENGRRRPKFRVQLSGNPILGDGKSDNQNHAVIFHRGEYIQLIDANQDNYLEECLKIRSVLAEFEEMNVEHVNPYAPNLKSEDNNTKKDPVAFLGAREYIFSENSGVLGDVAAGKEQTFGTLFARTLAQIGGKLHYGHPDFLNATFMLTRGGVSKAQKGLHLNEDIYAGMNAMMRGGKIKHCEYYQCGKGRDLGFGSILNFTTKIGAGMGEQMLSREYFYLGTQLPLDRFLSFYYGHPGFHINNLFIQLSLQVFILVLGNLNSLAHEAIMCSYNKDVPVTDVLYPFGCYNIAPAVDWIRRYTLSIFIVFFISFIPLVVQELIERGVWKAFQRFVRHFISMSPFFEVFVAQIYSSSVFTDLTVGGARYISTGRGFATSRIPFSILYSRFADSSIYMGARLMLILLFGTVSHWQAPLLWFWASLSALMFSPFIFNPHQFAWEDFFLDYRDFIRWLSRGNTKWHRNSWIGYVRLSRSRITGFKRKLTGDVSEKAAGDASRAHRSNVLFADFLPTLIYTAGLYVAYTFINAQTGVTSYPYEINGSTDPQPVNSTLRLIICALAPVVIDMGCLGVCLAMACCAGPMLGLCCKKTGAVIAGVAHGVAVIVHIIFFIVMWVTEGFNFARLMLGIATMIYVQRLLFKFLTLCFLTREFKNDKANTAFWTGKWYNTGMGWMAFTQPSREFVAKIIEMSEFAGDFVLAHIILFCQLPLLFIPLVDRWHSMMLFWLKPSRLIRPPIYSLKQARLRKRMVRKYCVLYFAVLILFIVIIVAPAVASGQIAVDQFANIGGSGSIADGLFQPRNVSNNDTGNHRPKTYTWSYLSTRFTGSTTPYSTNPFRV

[1] = In vivo anti-Candida activity was determined in a mouse model of disseminated candidiasis (TOKA).; format: functional
Candida albicans = assay: In vitro Fungicidal activity (MFC) against Candida albicans (MY 1055).; format: functional

Row | SMILES | MFC (Candida parapsilosis) | IC50 (Beta-1,3-glucan synthase) | ED99.9 [1] | MFC (Candida albicans)
1 | CCC(C)CC(C)CCCCCCCCC(=O)N[C@H]1C[C@@H](O)[C@@H](O)NC(=O)[C@@H]2[C@@H](O)CCN2C(=O)[C@H]([C@H](O)CCN=C(N)N)NC(=O)[C@H]([C@H](O)[C@@H](O)c2ccc(O)cc2)NC(=O)[C@@H]2C[C@@H](O)CN2C(=O)[C@H]([C@@H](C)O)NC1=O (stereo partly drawn) (X1-[Orn(4R-OH,5R-OH)]T[Hyp][hTyr(3S-OH,4S-OH)][X5][Pro(3S-OH)]; lactam 1-C) | 0.5 µg/mL (≈ 0.457 µM) | 7 nM | 1.5 mg/kg | < 0.06 µg/mL
2 | CCC(C)CC(C)CCCCCCCCC(=O)N[C@H]1C[C@@H](O)CNC(=O)[C@@H]2[C@@H](O)CCN2C(=O)[C@H]([C@H](O)CC(=O)OC)NC(=O)[C@H]([C@H](O)Cc2ccc(O)cc2)NC(=O)[C@@H]2C[C@@H](O)CN2C(=O)[C@H]([C@@H](C)O)NC1=O (stereo partly drawn) (X1-[Orn(4R-OH)]T[Hyp][hTyr(3R-OH)][X11][Pro(3S-OH)]; lactam 1-C) | 4 µg/mL (≈ 3.82 µM) | 180 nM | >6 mg/kg | 0.5 µg/mL (≈ 0.477 µM)
3 | CCC(C)CC(C)CCCCCCCCC(=O)N[C@H]1C[C@@H](O)CNC(=O)[C@@H]2[C@@H](O)CCN2C(=O)[C@H]([C@H](O)CC(=O)NO)NC(=O)[C@H]([C@H](O)Cc2ccc(O)cc2)NC(=O)[C@@H]2C[C@@H](O)CN2C(=O)[C@H]([C@@H](C)O)NC1=O (stereo partly drawn) (X1-[Orn(4R-OH)]T[Hyp][hTyr(3R-OH)][X3][Pro(3S-OH)]; lactam 1-C) | 4 µg/mL (≈ 3.81 µM) | 80 nM | 6 mg/kg | 0.25 µg/mL (≈ 0.238 µM)
4 | CCC(C)CC(C)CCCCCCCCC(=O)N[C@H]1C[C@@H](O)[C@@H](O)NC(=O)[C@@H]2[C@@H](O)CCN2C(=O)[C@H]([C@H](O)CC#N)NC(=O)[C@H]([C@H](O)[C@@H](O)c2ccc(O)cc2)NC(=O)[C@@H]2C[C@@H](O)CN2C(=O)[C@H]([C@@H](C)O)NC1=O (stereo partly drawn) (X1-[Orn(4R-OH,5R-OH)]T[Hyp][hTyr(3S-OH,4S-OH)][X9][Pro(3S-OH)]; lactam 1-C) | 2 µg/mL (≈ 1.91 µM) | 100 nM | – | 2 µg/mL (≈ 1.91 µM)
5 | CCC(C)CC(C)CCCCCCCCC(=O)N[C@H]1C[C@@H](O)CNC(=O)[C@@H]2[C@@H](O)CCN2C(=O)[C@H]([C@H](O)CC(=O)NCCCCCC(=O)O)NC(=O)[C@H]([C@H](O)Cc2ccc(O)cc2)NC(=O)[C@@H]2C[C@@H](O)CN2C(=O)[C@H]([C@@H](C)O)NC1=O (stereo partly drawn) (X1-[Orn(4R-OH)]T[Hyp][hTyr(3R-OH)][X8][Pro(3S-OH)]; lactam 1-C) | 64 µg/mL (≈ 55.8 µM) | 900 nM | – | 2 µg/mL (≈ 1.74 µM)
6 | CCC(C)CC(C)CCCCCCCCC(=O)N[C@H]1C[C@@H](O)CNC(=O)[C@@H]2[C@@H](O)CCN2C(=O)[C@H]([C@H](O)CC(=O)NCCCCCC(=O)OC)NC(=O)[C@H]([C@H](O)Cc2ccc(O)cc2)NC(=O)[C@@H]2C[C@@H](O)CN2C(=O)[C@H]([C@@H](C)O)NC1=O (stereo partly drawn) (X1-[Orn(4R-OH)]T[Hyp][hTyr(3R-OH)][X16][Pro(3S-OH)]; lactam 1-C) | > 128 µg/mL | 250 nM | – | 4 µg/mL (≈ 3.44 µM)
7 | CCC(C)CC(C)CCCCCCCCC(=O)N[C@H]1C[C@@H](O)CNC(=O)[C@@H]2[C@@H](O)CCN2C(=O)[C@H]([C@H](O)CC#N)NC(=O)[C@H]([C@H](O)Cc2ccc(O)cc2)NC(=O)[C@@H]2C[C@@H](O)CN2C(=O)[C@H]([C@@H](C)O)NC1=O (stereo partly drawn) (X1-[Orn(4R-OH)]T[Hyp][hTyr(3R-OH)][X9][Pro(3S-OH)]; lactam 1-C) | 4 µg/mL (≈ 3.94 µM) | 100 nM | – | 1 µg/mL (≈ 0.985 µM)
8 | CCC(C)CC(C)CCCCCCCCC(=O)N[C@H]1C[C@@H](O)[C@@H](O)NC(=O)[C@@H]2[C@@H](O)CCN2C(=O)[C@H]([C@H](O)CCNC)NC(=O)[C@H]([C@H](O)[C@@H](O)c2ccc(O)cc2)NC(=O)[C@@H]2C[C@@H](O)CN2C(=O)[C@H]([C@@H](C)O)NC1=O (stereo partly drawn) (X1-[Orn(4R-OH,5R-OH)]T[Hyp][hTyr(3S-OH,4S-OH)][X13][Pro(3S-OH)]; lactam 1-C) | 2 µg/mL (≈ 1.88 µM) | 7 nM | 0.375 mg/kg | 2 µg/mL (≈ 1.88 µM)
9 | CCC(C)CC(C)CCCCCCCCC(=O)N[C@H]1C[C@@H](O)[C@@H](O)NC(=O)[C@@H]2[C@@H](O)CCN2C(=O)[C@H]([C@H](O)CC[N+](C)(C)C)NC(=O)[C@H]([C@H](O)[C@@H](O)c2ccc(O)cc2)NC(=O)[C@@H]2C[C@@H](O)CN2C(=O)[C@H]([C@@H](C)O)NC1=O (stereo partly drawn) (X1-[Orn(4R-OH,5R-OH)]T[Hyp][hTyr(3S-OH,4S-OH)][X6][Pro(3S-OH)]; lactam 1-C) | 0.5 µg/mL | 9 nM | 0.375 mg/kg | 0.125 µg/mL
10 | CCC(C)CC(C)CCCCCCCCC(=O)N[C@H]1C[C@@H](O)CNC(=O)[C@@H]2[C@@H](O)CCN2C(=O)[C@H]([C@H](O)CC(=O)NN)NC(=O)[C@H]([C@H](O)Cc2ccc(O)cc2)NC(=O)[C@@H]2C[C@@H](O)CN2C(=O)[C@H]([C@@H](C)O)NC1=O (stereo partly drawn) (X1-[Orn(4R-OH)]T[Hyp][hTyr(3R-OH)][X14][Pro(3S-OH)]; lactam 1-C) | 8 µg/mL (≈ 7.63 µM) | 110 nM | – | 4 µg/mL (≈ 3.82 µM)
